# Patent US20240158446A1, “CYCLIC COMPOUND HAVING SELECTIVE INHIBITORY ACTION ON KRAS OVER HRAS AND NRAS” (CHUGAI SEIYAKU KABUSHIKI KAISHA, priority 2021, published 2024)
# pKd: −log10 of the molar value. Read-outs that look alike come from different tables or passages of the source. Where a SMILES comes first, the peptide text is derived from it. Bridges are numbered along the chain shown (N, C = ends). [ ]: non-standard residue; d: D form. The star is where a group is joined. hPhe(3,5-F2-4-CF3) = N[C@@H](CCc1cc(F)c(C(F)(F)F)c(F)c1)C(=O)O; hPhe(3-Cl-4-CF3) = N[C@@H](CCc1ccc(C(F)(F)F)c(Cl)c1)C(=O)O; NPrPhe(4-CF3) = CCCN[C@@H](Cc1ccc(C(F)(F)F)cc1)C(=O)O; NMeGly(cPent) = CN[C@H](C(=O)O)C1CCCC1; Pro(4,4-F2) = O=C(O)[C@@H]1CC(F)(F)CN1; αMeI = CC[C@H](C)[C@](C)(N)C(=O)O; Hyp = O=C(O)[C@@H]1C[C@@H](O)CN1; NMeD = CN[C@@H](CC(=O)O)C(=O)O; NMeL = CN[C@@H](CC(C)C)C(=O)O; Morpholide = C1CN(*)CCO1; Ac5c = NC1(C(=O)O)CCCC1; Aze = O=C(O)[C@@H]1CCN1; Sar = CNCC(=O)O
# How the values were obtained:
# [1] = target: GDP-bound KRAS wild-type protein (Homo sapiens, UniProt P01116); assay: Binding to KRAS by surface plasmon resonance (SPR), Single Cycle Kinetics; conditions: GDP-bound KRAS wild-type protein, read-out: KRAS KD
# Sequence of GDP-bound KRAS wild-type protein (P01116 whole entry): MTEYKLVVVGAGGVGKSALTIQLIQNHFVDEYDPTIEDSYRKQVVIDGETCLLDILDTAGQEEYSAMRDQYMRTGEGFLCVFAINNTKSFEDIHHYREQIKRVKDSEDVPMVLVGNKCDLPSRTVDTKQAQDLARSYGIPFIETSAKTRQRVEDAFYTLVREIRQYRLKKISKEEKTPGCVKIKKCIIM
# [2] = target: GDP-bound NRAS wild-type protein (Homo sapiens, UniProt P01111); assay: Binding to NRAS by surface plasmon resonance (SPR), Single Cycle Kinetics; conditions: SPR, GDP-bound NRAS wild-type protein vs GDP-bound KRAS wild-type protein
# Sequence of GDP-bound NRAS wild-type protein (P01111 whole entry): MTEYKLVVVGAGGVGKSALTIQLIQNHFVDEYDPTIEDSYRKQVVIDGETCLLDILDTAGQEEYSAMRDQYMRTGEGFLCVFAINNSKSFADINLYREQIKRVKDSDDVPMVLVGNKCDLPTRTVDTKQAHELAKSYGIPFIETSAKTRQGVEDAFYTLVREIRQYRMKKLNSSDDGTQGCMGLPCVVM
# [3] = target: GDP-bound HRAS wild-type protein (Homo sapiens, UniProt P01112); assay: Binding to HRAS by surface plasmon resonance (SPR), Single Cycle Kinetics; conditions: SPR, GDP-bound HRAS wild-type protein vs GDP-bound KRAS wild-type protein
# Sequence of GDP-bound HRAS wild-type protein (P01112 whole entry): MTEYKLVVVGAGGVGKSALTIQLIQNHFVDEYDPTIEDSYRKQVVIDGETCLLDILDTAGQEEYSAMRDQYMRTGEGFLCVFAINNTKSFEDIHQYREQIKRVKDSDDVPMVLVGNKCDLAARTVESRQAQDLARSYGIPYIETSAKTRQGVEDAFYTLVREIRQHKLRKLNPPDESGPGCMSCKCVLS
# [4] = SPR Single Cycle Kinetics, 1:1 binding model
"pKd ([1]; SPR, Single Cycle Kinetics)","pKd [1, 4]",Structure (SMILES),NRAS/KRAS (ratio of KD value for NRAS to KD value for KRAS) [2],HRAS/KRAS (ratio of KD value for HRAS to KD value for KRAS) [3],NRAS/KRAS (ratio of KD value with respect to NRAS to KD value with respect to KRAS) [2],HRAS/KRAS (ratio of KD value with respect to HRAS to KD value with respect to KRAS) [3]
9.96,–,"CCO[C@@H]1C[C@H]2C(=O)NC3(CC(C)(C)C3)C(=O)N(C)[C@@H](C3CCCC3)C(=O)N(C)[C@H](C(=O)N3CCCC3)CC(=O)N(C)[C@H]3CCCCCCc4ccc(cc4)C[C@@H](C(=O)N(C)CC(=O)N[C@@H](CCc4ccc(C(F)(F)F)c(OC)c4)C(=O)N2C1)N1CC/C=C\C[C@@H](C1=O)N(C)C(=O)CN(C)C(=O)[C@H]([C@@H](C)CC)NC3=O [PP3034, (1S,7S,11R,13S,19S,22S,26S,29S,35S,37Z)-19-cyclopentyl-11-ethoxy-7-[2-[3-methoxy-4-(trifluoromethyl)phenyl]ethyl]-3,3′,3′,18,21,25,31,34-octamethyl-29-[(1S)-1-methylpropyl]-22-(pyrrolidine-1-carbonyl)spiro[3,6,9,15,18,21,25,28,31,34,41-undecazapentacyclo[24.15.11.2^43,46.1^35,41.0^9,13]pentapentaconta-37,43(54),44,46(53)-tetraene-16,1′-cyclobutane]-2,5,8,14,17,20,24,27,30,33,55-undecone]",A (a compound having 10 or more and less than 20 is denoted as A),B (a compound having 3 or more and less than 10 is denoted as B),–,–
–,9.89,CCCN1C(=O)CN(C)C(=O)CNC(=O)[C@H]([C@@H](C)CC)NC(=O)[C@H](CC(C)C)N(C)C(=O)C[C@@H](C(=O)N2CCOCC2)N(C)C(=O)[C@H](C2CCCC2)N(C)C(=O)C2(CCCC2)NC(=O)[C@@H]2C[C@@H](OCC)CN2C(=O)[C@H](CCc2ccc(C(F)(F)F)c(Cl)c2)NC(=O)CN(C)C(=O)[C@@H]1Cc1ccc(C(F)(F)F)cc1 [PP0396] ([NMeL]IG[Sar][NPrPhe(4-CF3)][Sar][hPhe(3-Cl-4-CF3)][Hyp](Et)[Ac5c][NMeGly(cPent)][NMeD]-Morpholide; lactam N-11),B (a compound having 3 or more and less than 10 is denoted as B),C (A compound having a KD ratio of 0.1 or more and less than 3 is denoted as C),–,–
–,8.74,"CCCN1C(=O)CN(C)C(=O)CN(C)C(=O)[C@H]([C@@H](C)CC)NC(=O)[C@H](CC(C)C)N(C)C(=O)C[C@@H](C(=O)N(C)C)N(C)C(=O)[C@H](C2CCCC2)N(C)C(=O)[C@](C)([C@@H](C)CC)NC(=O)[C@@H]2CCCN2C(=O)[C@H](CCc2cc(F)c(C(F)(F)F)c(F)c2)NC(=O)CN(C)C(=O)[C@@H]1Cc1ccc(C(F)(F)F)cc1 [PP0736] ([NMeL]I[Sar][Sar][NPrPhe(4-CF3)][Sar][hPhe(3,5-F2-4-CF3)]P[αMeI][NMeGly(cPent)][NMeD]-NMe2; lactam N-11)",–,–,B (a compound having 3 or more and less than 10 is denoted as B),C (A compound having a KD ratio of 0.1 or more and less than 3 is denoted as C)
9.59,–,CCO[C@@H]1C[C@H]2C(=O)NC3(CCC3)C(=O)N(C)[C@@H](C(CC)CC)C(=O)N(C)[C@H](C(=O)N3CCCC3)CC(=O)N(C)[C@H]3CCCCC/C=C/c4ccc(cc4)C[C@@H](C(=O)N(C)CC(=O)N[C@@H](CCc4ccc(Cl)c(Cl)c4)C(=O)N2C1)N1CC/C=C\C[C@@H](C1=O)N(C)C(=O)CN(C)C(=O)[C@H]([C@@H](C)CC)NC3=O [PP3052],AA (a compound having 20 or more is denoted as AA),A (a compound having 10 or more and less than 20 is denoted as A),–,–
–,8.96,"CCCN1C(=O)[C@@H]2CCN2C(=O)CN(C)C(=O)[C@H]([C@@H](C)CC)NC(=O)[C@H](CC(C)C)N(C)C(=O)C[C@@H](C(=O)N2CCOCC2)NC(=O)[C@H](C2CCCC2)N(C)C(=O)C2(CCCC2)NC(=O)[C@@H]2CC(F)(F)CN2C(=O)[C@H](CCc2ccc(C(F)(F)F)c(Cl)c2)NC(=O)CN(C)C(=O)[C@@H]1Cc1ccc(C(F)(F)F)cc1 [PP0351] ([NMeL]I[Sar][Aze][NPrPhe(4-CF3)][Sar][hPhe(3-Cl-4-CF3)][Pro(4,4-F2)][Ac5c][NMeGly(cPent)]D-Morpholide; lactam N-11)",C (A compound having a KD ratio of 0.1 or more and less than 3 is denoted as C),B (a compound having 3 or more and less than 10 is denoted as B),–,–
9.82,–,CCCO[C@@H]1C[C@H]2C(=O)NC3(CC(C)(C)C3)C(=O)N(C)[C@@H](C(CC)CC)C(=O)N(C)[C@H](C(=O)N(C)C)CC(=O)N(C)[C@H]3CCCCc4ccc(cc4)C[C@@H](C(=O)N(C)CC(=O)N[C@@H](CCc4ccc(C(F)(F)F)c(OC)c4)C(=O)N2C1)N1CC/C=C\C[C@@H](C1=O)N(C)C(=O)CN(C)C(=O)[C@H]([C@@H](C)CC)NC3=O [PP3038],A (a compound having 10 or more and less than 20 is denoted as A),A (a compound having 10 or more and less than 20 is denoted as A),–,–
